Laboratory results published in patent publication US7758851B2, “Preservative systems and their use in cosmetic preparations” (Laboratorios Miret, S.A., priority 2001, dated 2010).

Columns and labels:
Yeast = assay: Antimicrobial Effectiveness Testing (USP 24) of preserved cosmetic formulations, count of yeast; assay type: cell-based, Candida albicans ATCC 10231; settings: for Yeast, Initial: 0 hours
Description: (§1) Procedure to Evaluate the Efficacv of the Preservative System
(§2) This assay consists on the contamination of the formulations to be protected with a mixed inoculum of 10^8 cfu/ml concentration, in each of the micro-organisms, and see the variation of the viable cells in time. This mixed inoculum is composed of the following micro-organisms:
(§3) The cosmetic composition which is the subject of the investigation is divided into containers with 50 g of product for each flask. Each container is inoculated with 0.5 ml of the inoculum (10^8 cfu/ml). The target concentration is 10^6 cfu/mL, approximately. All the containers are kept at a temperature between 20-25° C. and are protected against light.
(§4) The level of the microbial contamination is determined at 0 hours and after 7 days, 14 days and 28 days. The number of colonies is determined by dilution in buffer peptone with the appropriate neutraliser agent of the preservative. The culture media used for counting the micro-organisms were: Soya triptone agar (35-37° C., 48 hours) for the determination of bacteria; and Sabouraud agar with chloramphenicol for fungi and yeast (25° C., 3-5 days).
(§5) According to Antimicrobial Effectiveness Testing USP 24th Edition, 1999 (pp. 1809-1811), an antimicrobial preservative is considered to be effective in topically used products made with aqueous bases or vehicles, non-sterile nasal products and emulsions, including those applied to mucous membranes, if: • not less than 2,0 logarithm reduction from the initial calculated bacteria's count at 14 days is reached and no increase from the 14 days' count is detected after 28 days; and • no increase from the initial calculated count of yeast and moulds is observed.

Fungi = assay: Antimicrobial Effectiveness Testing (USP 24) of preserved cosmetic formulations, count of fungi; assay type: cell-based, Aspergillus niger ATCC 16404; settings: for Fungi, Initial: 0 hours
Description: as §1, §2, §3, §4, §5

Aerobes = assay: Antimicrobial Effectiveness Testing (USP 24) of preserved cosmetic formulations, count of aerobes; assay type: cell-based; settings: for Aerobes, Initial: 0 hours
Description: as §1, §2, §3, §4, §5

[1] = Example 1, oil in water emulsion with non-ionic surfactant
[2] = Example 2, oil in water emulsion with ionic emulsifier
[3] = Example 3, water in oil emulsion with non-ionic emulsifier

| Compound | Yeast, Initial (Yeast; [1]) | Yeast, 7 days (Yeast; [1]) | Yeast, 14 days (Yeast; [1]) | Yeast, Initial (Yeast; [2]) | Yeast, 7 days (Yeast; [2]) | Yeast, 14 days (Yeast; [2]) | Yeast, Initial (Yeast; [3]) | Yeast, 7 days (Yeast; [3]) | Yeast, 14 days (Yeast; [3]) | Fungi, Initial (Fungi; [1]) | Fungi, 7 days (Fungi; [1]) | Fungi, 14 days (Fungi; [1]) | Fungi, Initial (Fungi; [2]) | Fungi, 7 days (Fungi; [2]) | Fungi, 14 days (Fungi; [2]) | Fungi, Initial (Fungi; [3]) | Fungi, 7 days (Fungi; [3]) | Fungi, 14 days (Fungi; [3]) | Aerobes, Initial (Aerobes; [1]) | Aerobes, 7 days (Aerobes; [1]) | also measured |
| --- | --- | --- | --- | --- | --- | --- | --- | --- | --- | --- | --- | --- | --- | --- | --- | --- | --- | --- | --- | --- | --- |
| CCCCCCCCCCCC(=O)NC(CCCNC(=N)N)C(=O)OCC.Cl (stereo not drawn) [compound 1] | 5.6 · 10^4 | 9.5 · 10^2 | 4.0 · 10^2 | 3.6 · 10^4 | 1.0 · 10^2 | 1.0 · 10^2 | 7.0 · 10^4 | <9.9 · 10^1 | <9.9 · 10^1 | 1.7 · 10^5 | 8.9 · 10^2 | <9.9 · 10^1 | 1.4 · 10^5 | 7.2 · 10^3 | 2.8 · 10^2 | 1.0 · 10^5 | <9.9 · 10^1 | <9.9 · 10^1 | 1.1 · 10^6 | 3.1 · 10^3 | Aerobes, 14 days (Aerobes; [1]): 3.3 · 10^2; Aerobes, Initial (Aerobes; [2]): 2.7 · 10^6; Aerobes, 7 days (Aerobes; [2]): 1.6 · 10^4; Aerobes, 14 days (Aerobes; [2]): 6.5 · 10^2; Aerobes, Initial (Aerobes; [3]): 6.2 · 10^6; Aerobes, 7 days (Aerobes; [3]): 1.8 · 10^3; Aerobes, 14 days (Aerobes; [3]): <9.9 · 10^1 |
| O=[N+]([O-])C(Br)(CO)CO [compound 2] | 3.4 · 10^4 | 1.7 · 10^2 | <9.9 · 10^1 | 2.9 · 10^4 | 8.9 · 10^2 | 4.0 · 10^2 | 5.9 · 10^4 | 8.9 · 10^2 | 4.0 · 10^2 | 1.5 · 10^5 | 1.2 · 10^3 | <9.9 · 10^1 | 1.5 · 10^5 | 8.5 · 10^3 | 1.1 · 10^2 | 3.5 · 10^4 | 8.5 · 10^3 | <9.9 · 10^1 | 1.2 · 10^6 | 2.1 · 10^3 | Aerobes, 14 days (Aerobes; [1]): 7.9 · 10^2; Aerobes, Initial (Aerobes; [2]): 4.5 · 10^6; Aerobes, 7 days (Aerobes; [2]): 2.1 · 10^4; Aerobes, 14 days (Aerobes; [2]): 3.8 · 10^3; Aerobes, Initial (Aerobes; [3]): 3.3 · 10^6; Aerobes, 7 days (Aerobes; [3]): 5.7 · 10^3; Aerobes, 14 days (Aerobes; [3]): 2.8 · 10^3 |
| CC1(C)C(=O)N(CO)C(=O)N1CO [compound 4] | 5.6 · 10^4 | 3.1 · 10^2 | <9.9 · 10^1 | 1.8 · 10^4 | 2.8 · 10^2 | <9.9 · 10^1 | 4.8 · 10^4 | 2.8 · 10^2 | <9.9 · 10^1 | 1.6 · 10^5 | 3.2 · 10^3 | <9.9 · 10^1 | 1.4 · 10^5 | 6.2 · 10^3 | 2.7 · 10^2 | 6.4 · 10^4 | 6.2 · 10^3 | <9.9 · 10^1 | 1.5 · 10^6 | 4.7 · 10^3 | Aerobes, 14 days (Aerobes; [1]): 8.5 · 10^2; Aerobes, Initial (Aerobes; [2]): 5.2 · 10^6; Aerobes, 7 days (Aerobes; [2]): 4.7 · 10^3; Aerobes, 14 days (Aerobes; [2]): 8.7 · 10^2; Aerobes, Initial (Aerobes; [3]): 5.6 · 10^6; Aerobes, 7 days (Aerobes; [3]): 4.7 · 10^3; Aerobes, 14 days (Aerobes; [3]): 4.3 · 10^2 |
| OCCOc1ccccc1 [compound 5] | 3.4 · 10^4 | 1.6 · 10^2 | <9.9 · 10^1 | 2.3 · 10^4 | 5.3 · 10^2 | <9.9 · 10^1 | 5.3 · 10^4 | 5.3 · 10^2 | <9.9 · 10^1 | 1.7 · 10^5 | 1.3 · 10^3 | <9.9 · 10^1 | 1.2 · 10^5 | 5.5 · 10^3 | 3.4 · 10^2 | 4.2 · 10^4 | 5.5 · 10^3 | <9.9 · 10^1 | 2.3 · 10^6 | 1.8 · 10^3 | Aerobes, 14 days (Aerobes; [1]): 6.2 · 10^2; Aerobes, Initial (Aerobes; [2]): 2.7 · 10^6; Aerobes, 7 days (Aerobes; [2]): 1.8 · 10^4; Aerobes, 14 days (Aerobes; [2]): 1.8 · 10^3; Aerobes, Initial (Aerobes; [3]): 4.8 · 10^6; Aerobes, 7 days (Aerobes; [3]): 3.9 · 10^3; Aerobes, 14 days (Aerobes; [3]): 1.9 · 10^3 |
| ClC=CC[N+]12CN3CN(CN(C3)C1)C2.[Cl-] [compound 8] | 3.4 · 10^4 | 1.6 · 10^2 | <9.9 · 10^1 | 1.9 · 10^4 | 5.9 · 10^2 | <9.9 · 10^1 | 5.9 · 10^4 | 5.9 · 10^2 | <9.9 · 10^1 | 1.8 · 10^5 | 1.3 · 10^3 | <9.9 · 10^1 | 1.8 · 10^5 | 5.3 · 10^3 | <9.9 · 10^1 | 3.8 · 10^4 | 1.3 · 10^3 | <9.9 · 10^1 | 4.8 · 10^6 | 7.2 · 10^3 | Aerobes, 14 days (Aerobes; [1]): 5.3 · 10^2; Aerobes, Initial (Aerobes; [2]): 4.6 · 10^6; Aerobes, 7 days (Aerobes; [2]): 7.2 · 10^3; Aerobes, 14 days (Aerobes; [2]): 9.8 · 10^2; Aerobes, Initial (Aerobes; [3]): 4.2 · 10^6; Aerobes, 7 days (Aerobes; [3]): 2.7 · 10^3; Aerobes, 14 days (Aerobes; [3]): 9.4 · 10^2 |
